From the supplement of paper PMC13380429

Experiments:
Conditions in all cases: 72 h
[1] = tested on: Caco-2; assay: cell viability relative to DMSO; higher = less toxic
[2] = tested on: Calu-3; assay: as above
[3] = tested on: HepG2; assay: as above
[4] = tested on: U2OS; assay: as above
[5] = tested on: Vero E6; assay: as above
[6] = tested on: HepG2; assay: relative viability EC50 (midpoint between 100% and the lowest measured viability); higher = less toxic
[7] = tested on: U2OS; assay: as above
[8] = tested on: Vero E6; assay: as above
[9] = tested on: Caco-2; assay: drug sensitivity score (DSS) for viability; higher = more toxic; extreme values may be limits of the assay
[10] = tested on: Calu-3; assay: as above
[11] = tested on: HepG2; assay: as above
[12] = tested on: U2OS; assay: as above
[13] = tested on: Vero E6; assay: as above
[14] = tested on: Caco-2; assay: relative viability EC50 (midpoint between 100% and the lowest measured viability); higher = less toxic

SMILES | cell viability ([1]; 1 nM) [%] | cell viability ([1]; 10 nM) [%] | cell viability ([1]; 100 nM) [%] | cell viability ([1]; 1000 nM) [%] | cell viability ([1]; 10000 nM) [%] | cell viability ([2]; 1 nM) [%] | cell viability ([2]; 10 nM) [%] | cell viability ([2]; 100 nM) [%] | cell viability ([2]; 1000 nM) [%] | cell viability ([2]; 10000 nM) [%] | cell viability ([3]; 1 nM) [%] | cell viability ([3]; 10 nM) [%] | cell viability ([3]; 100 nM) [%] | cell viability ([3]; 1000 nM) [%] | cell viability ([3]; 10000 nM) [%] | cell viability ([4]; 1 nM) [%] | cell viability ([4]; 10 nM) [%] | cell viability ([4]; 100 nM) [%] | cell viability ([4]; 1000 nM) [%] | cell viability ([4]; 10000 nM) [%] | cell viability ([5]; 1 nM) [%] | cell viability ([5]; 10 nM) [%] | cell viability ([5]; 100 nM) [%] | cell viability ([5]; 1000 nM) [%] | cell viability ([5]; 10000 nM) [%] | relative viability EC50 [6] [µM] | relative viability EC50 [7] [nM] | relative viability EC50 [8] [µM] | drug sensitivity score [9] | drug sensitivity score [10] | drug sensitivity score [11] | drug sensitivity score [12] | drug sensitivity score [13] | relative viability EC50 [14] [µM]
NS(=O)(=O)OC[C@@H]1C[C@@H](n2ccc3c(N[C@H]4CCc5ccccc54)ncnc32)C[C@@H]1O [pevonedistat] | 95.3 | 106 | 87.7 | 92.4 | 60.1 | 94.9 | 97.2 | 104 | 97.4 | 71.8 | 96.3 | 111 | 77.6 | 58.2 | 32.7 | 98.6 | 98.6 | 101 | 71 | 14.9 | 96.9 | 107 | 103 | 104 | 24.3 | 0.401 | 1300 | 3.45 | 3.1 | 1.6 | 10.3 | 8.8 | 3.9 | –
N=C(N)NC(=O)c1cnccn1 [pyrazinoylguanidine] | 107 | 100 | 101 | 99.7 | 101 | – | – | – | – | – | 104 | 97.1 | 94.9 | 99.1 | 104 | – | – | – | – | – | 99.8 | 106 | 104 | 106 | 99.7 | > 10 | – | > 10 | 0 | – | 0 | – | 0 | > 10
C=C[C@H]1CN2CC[C@H]1C[C@@H]2[C@@H](O)c1ccnc2ccc(OC)cc12 [quinidine] | – | – | – | – | – | – | – | – | – | – | – | – | – | – | – | – | – | – | – | – | – | – | – | – | – | – | – | – | – | 0 | 0 | 0 | 0 | –
CNCc1ccc(-c2[nH]c3cc(F)cc4c3c2CCNC4=O)cc1 [rucaparib] | 94.7 | 91.2 | 97.4 | 94.5 | 89.6 | – | – | – | – | – | 98.8 | 109 | 95.5 | 92 | 78.7 | 101 | 93.4 | 98.7 | 102 | 106 | 96.4 | 99.9 | 96.1 | 93.7 | 93.3 | > 10 | > 10000 | > 10 | 0 | – | 1.1 | 0 | 0 | > 10
CCN1CCCC1CNC(=O)c1cc(S(N)(=O)=O)ccc1OC (centres undefined) [sulpiride] | – | – | – | – | – | – | – | – | – | – | – | – | – | – | – | – | – | – | – | – | – | – | – | – | – | – | – | – | – | 0 | 0 | 0 | 0 | –
O=c1ccn([C@@H]2O[C@H](CO)[C@@H](O)[C@H]2O)c(=O)[nH]1 [uridine] | – | – | – | – | – | – | – | – | – | – | – | – | – | – | – | – | – | – | – | – | – | – | – | – | – | – | – | – | – | 0 | 0.8 | 0 | 0 | –
